In PubChem BioAssay AID2060495 (Molecular Pharmacology Branch, DTP, NCI, 2025):

System: 521955-158-R2-J5-PDC complex spheroid viability
Experiment: Anticancer human tumor 521955-158-R2-J5-PDC patient-derived pancreatic carcinoma cell line growth inhibition [GQUAD]
Conditions: for IC50: curve of first compound; for viability, T/C: stronger effect = lower value; active = viability on the fitted dose curve at most 10% of control; inactive = the rest
Procedure, shortened: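 Viability of tumor cells grown as complex spheroids with endothelial and stromal cells, exposed to drug combinations. Top concentration at or near clinical Cmax (else 10 microM), diluted in half-log increments.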
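Also: spheroids exposed to agents for one week before reading.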
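For viability, T/C in this document: 100% = DMSO vehicle control viability.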

Cc1[nH]c2ccccc2c1CCNCc1ccc(/C=C/C(=O)NO)cc1 + Cc1[nH]c2ccc(F)cc2c1-c1nc2c3cccnc3c3ncccc3c2[nH]1
0.137 µM: IC50 (second compound 0.316 µM)
0.207 µM: IC50 (second compound 3.16 µM)
0.156 µM: IC50 (second compound 0.1 µM)
0.112 µM: IC50 (second compound 0.0316 µM)
0.157 µM: IC50 (second compound 10 µM)
0.224 µM: IC50 (second compound 1 µM)
inactive: viability, T/C (second compound 0.0316 µM, first compound 0.000999 µM) 116% | viability, T/C (second compound 0.0316 µM, first compound 0.00316 µM) 120% | viability, T/C (second compound 0.0316 µM, first compound 0.00999 µM) 132% | viability, T/C (second compound 0.0316 µM, first compound 0.0316 µM) 102% | viability, T/C (second compound 0.0316 µM, first compound 0.0999 µM) 54.1% | viability, T/C (second compound 0.0316 µM, first compound 0.316 µM) 23.1% | viability, T/C (second compound 0.1 µM, first compound 0.000999 µM) 106% | viability, T/C (second compound 0.1 µM, first compound 0.00316 µM) 109% | viability, T/C (second compound 0.1 µM, first compound 0.00999 µM) 122% | viability, T/C (second compound 0.1 µM, first compound 0.0316 µM) 116% | viability, T/C (second compound 0.1 µM, first compound 0.0999 µM) 64.5% | viability, T/C (second compound 0.1 µM, first compound 0.316 µM) 27.3% | viability, T/C (second compound 0.316 µM, first compound 0.000999 µM) 96.4% | viability, T/C (second compound 0.316 µM, first compound 0.00316 µM) 108% | viability, T/C (second compound 0.316 µM, first compound 0.00999 µM) 117% | viability, T/C (second compound 0.316 µM, first compound 0.0316 µM) 114% | viability, T/C (second compound 0.316 µM, first compound 0.0999 µM) 58.3% | viability, T/C (second compound 0.316 µM, first compound 0.316 µM) 27.8% | viability, T/C (second compound 1 µM, first compound 0.000999 µM) 105% | viability, T/C (second compound 1 µM, first compound 0.00316 µM) 123% | viability, T/C (second compound 1 µM, first compound 0.00999 µM) 131% | viability, T/C (second compound 1 µM, first compound 0.0316 µM) 106% | viability, T/C (second compound 1 µM, first compound 0.0999 µM) 102% | viability, T/C (second compound 1 µM, first compound 0.316 µM) 27.9% | viability, T/C (second compound 3.16 µM, first compound 0.000999 µM) 106% | viability, T/C (second compound 3.16 µM, first compound 0.00316 µM) 110% | viability, T/C (second compound 3.16 µM, first compound 0.00999 µM) 118% | viability, T/C (second compound 3.16 µM, first compound 0.0316 µM) 109% | viability, T/C (second compound 3.16 µM, first compound 0.0999 µM) 92% | viability, T/C (second compound 3.16 µM, first compound 0.316 µM) 25.6% | viability, T/C (second compound 10 µM, first compound 0.000999 µM) 92.4% | viability, T/C (second compound 10 µM, first compound 0.00316 µM) 105% | viability, T/C (second compound 10 µM, first compound 0.00999 µM) 110% | viability, T/C (second compound 10 µM, first compound 0.0316 µM) 115% | viability, T/C (second compound 10 µM, first compound 0.0999 µM) 66.3% | viability, T/C (second compound 10 µM, first compound 0.316 µM) 24.7%
